In patent publication US9487510B2, “Substituted heterocyclic acetamides as kappa opioid receptor (KOR) agonists” (Dr. Reddy's Laboratories Ltd., priority 2012, dated 2016):

Biological target: human KOR receptor (Homo sapiens, UniProt P41145)
Test: IP-One HTRF assay, potency of KOR agonists, dose-response in transiently transfected COS-7 cells
Format: cell-based

human KOR receptor, sequence (P41145 whole entry): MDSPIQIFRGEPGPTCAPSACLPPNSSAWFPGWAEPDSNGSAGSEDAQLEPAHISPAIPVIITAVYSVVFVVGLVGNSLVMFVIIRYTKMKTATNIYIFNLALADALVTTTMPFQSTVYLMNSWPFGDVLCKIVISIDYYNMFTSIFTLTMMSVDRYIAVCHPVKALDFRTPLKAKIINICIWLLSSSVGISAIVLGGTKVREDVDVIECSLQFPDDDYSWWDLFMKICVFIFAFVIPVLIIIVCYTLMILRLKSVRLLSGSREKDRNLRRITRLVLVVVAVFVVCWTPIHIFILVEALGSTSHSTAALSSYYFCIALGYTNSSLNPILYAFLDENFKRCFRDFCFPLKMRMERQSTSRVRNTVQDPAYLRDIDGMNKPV

Structure (SMILES)	EC50 [µM]
CN(C(=O)Cc1ccc2oc(=O)[nH]c2c1)[C@H](CN1CC[C@H](O)C1)c1cccc(C(N)=O)c1 [Example 160, 3-((S)-2-((S)-3-hydroxypyrrolidin-1-yl)-1-(N-methyl-2-(2-oxo-2,3-dihydrobenzo[d]oxazol-5-yl)acetamido)ethyl)benzamide]	≤ 0.05
CN(C(=O)Cc1ccc2c(c1)NC(=O)C2)[C@H](CN1CC[C@H](F)C1)c1cccc(OCC(=O)NS(C)(=O)=O)c1 [Example 162, N-((S)-2-((S)-3-fluoropyrrolidin-1-yl)-1-(3-(2-(methylsulfonamido)-2-oxoethoxy)phenyl)ethyl)-N-methyl-2-(2-oxoindolin-6-yl)acetamide]	≤ 0.05
CN(C(=O)Cc1ccc2ncc(=O)[nH]c2c1)[C@H](CN1CC[C@H](O)C1)c1cccc(C(N)=O)c1 [Example 164, 3-((S)-2-((S)-3-hydroxypyrrolidin-1-yl)-1-(N-methyl-2-(3-oxo-3,4-dihydroquinoxalin-6-yl)acetamido)ethyl)benzamide]	≤ 0.05
CN(C(=O)Cc1ccc2c(c1)NC(=O)C2)[C@H](CN1CC[C@H](F)C1)c1cccc(C(N)=O)c1 [Example 165, 3-((S)-2-((S)-3-fluoropyrrolidin-1-yl)-1-(N-methyl-2-(2-oxoindolin-6-yl)acetamido)ethyl)benzamide]	0.101 to 1
CN(C(=O)Cc1ccc2sc(=O)[nH]c2c1)[C@H](CN1CC[C@H](O)C1)c1cccc(OCC(=O)O)c1 [Example 166, 2-(3-((S)-2-((S)-3-hydroxypyrrolidin-1-yl)-1-(N-methyl-2-(2-oxo-2,3-dihydrobenzo [d]thiazol-5-yl)acetamido)ethyl)phenoxy)acetic acid]	≤ 0.05
CN(C(=O)Cc1ccc2c(c1)NC(=O)CO2)[C@H](CN1CC[C@H](O)C1)c1cccc(OCC(=O)O)c1 [Example 167, 2-(3-((S)-2-((S)-3-hydroxypyrrolidin-1-yl)-1-(N-methyl-2-(3-oxo-3,4-dihydro-2H-benzo[b][1,4]oxazin-6-yl)acetamido)ethyl)phenoxy)acetic acid]	≤ 0.05
CN(C(=O)Cc1ccc2c(c1)NC(=O)CS2(=O)=O)[C@H](CN1CC[C@H](O)C1)c1cccc(OCC(N)=O)c1 [Example 168, N-((S)-1-(3-(2-amino-2-oxoethoxy)phenyl)-2-((S)-3-hydroxypyrrolidin-1-yl)ethyl)-2-(1,1-dioxido-3-oxo-3,4-dihydro-2H-benzo[b][1,4]thiazin-6-yl)-N-methylacetamide]	≤ 0.05
CN(C(=O)Cc1ccc2c(c1)CC(=O)N2)[C@H](CN1CC[C@H](O)C1)c1cccc(OCC(=O)O)c1 [Example 169, 2-(3-((S)-2-((S)-3-hydroxypyrrolidin-1-yl)-1-(N-methyl-2-(2-oxoindolin-5-yl)acetamido)ethyl)phenoxy)acetic acid]	≤ 0.05
CN(C(=O)Cc1ccc2sc(=O)[nH]c2c1)[C@H](CN1CC[C@H](O)C1)c1cccc(OCC(N)=O)c1 [Example 170, N-((S)-1-(3-(2-amino-2-oxoethoxy)phenyl)-2-((S)-3-hydroxypyrrolidin-1-yl)ethyl)-N-methyl-2-(2-oxo-2,3-dihydrobenzo[d]thiazol-5-yl)acetamide]	≤ 0.05
CN(C(=O)Cc1ccc2ncc(=O)[nH]c2c1)[C@H](CN1CC[C@H](O)C1)c1cccc(OCC(=O)O)c1 [Example 171, 2-(3-((S)-2-((S)-3-hydroxypyrrolidin-1-yl)-1-(N-methyl-2-(3-oxo-3,4-dihydroquinoxalin-6-yl)acetamido)ethyl)phenoxy)acetic acid]	≤ 0.05
CN(C(=O)Cc1ccc2c(c1)NC(=O)CS2)[C@H](CN1CC[C@H](O)C1)c1cccc(OCC(=O)O)c1 [Example 172, 2-(3-((S)-2-((S)-3-hydroxypyrrolidin-1-yl)-1-(N-methyl-2-(3-oxo-3,4-dihydro-2H-benzo[b][1,4]thiazin-6-yl)acetamido)ethyl)phenoxy)acetic acid]	≤ 0.05
CN(C(=O)Cc1ccc2c(c1)NC(=O)CO2)[C@H](CN1CC[C@H](O)C1)c1cccc(OCC(N)=O)c1 [Example 173, N-((S)-1-(3-(2-amino-2-oxoethoxy)phenyl)-2-((S)-3-hydroxypyrrolidin-1-yl)ethyl)-N-methyl-2-(3-oxo-3,4-dihydro-2H-benzo[b][1,4]oxazin-6-yl)acetamide]	≤ 0.05
CN(C(=O)Cc1ccc2c(c1)NC(=O)CS2(=O)=O)[C@H](CN1CC[C@H](O)C1)c1cccc(OCC(=O)NS(C)(=O)=O)c1 [Example 174, 2-(1,1-dioxido-3-oxo-3,4-dihydro-2H-benzo[b][1,4]thiazin-6-yl)-N-((S)-2-((S)-3-hydroxypyrrolidin-1-yl)-1-(3-(2-(methylsulfonamido)-2-oxoethoxy)phenyl)ethyl)-N-methylacetamide]	≤ 0.05
CN(C(=O)Cc1ccc2c(c1)NC(=O)CS2)[C@H](CN1CC[C@H](O)C1)c1cccc(OCC(N)=O)c1 [Example 175, N-((S)-1-(3-(2-amino-2-oxoethoxy)phenyl)-2-((S)-3-hydroxypyrrolidin-1-yl)ethyl)-N-methyl-2-(3-oxo-3,4-dihydro-2H-benzo[b][1,4]thiazin-6-yl)acetamide]	≤ 0.05
CN(C(=O)Cc1ccc2oc(=O)[nH]c2c1)[C@H](CN1CC[C@H](O)C1)c1cccc(C(=O)O)c1 [Example 176, 3-((S)-2-((S)-3-hydroxypyrrolidin-1-yl)-1-(N-methyl-2-(2-oxo-2,3-dihydrobenzo[d]oxazol-5-yl)acetamido)ethyl)benzoic acid]	≤ 0.05
CN(C(=O)Cc1ccc2c(c1)NC(=O)C2)[C@H](CN1CC[C@H](O)C1)c1cccc(C(=O)NS(C)(=O)=O)c1 [Example 177, 3-((S)-2-((S)-3-hydroxypyrrolidin-1-yl)-1-(N-methyl-2-(2-oxoindolin-6-yl)acetamido)ethyl)-N-(methylsulfonyl)benzamide]	≤ 0.05
CN(C(=O)Cc1ccc2c(c1)NC(=O)C2)[C@H](CN1CC[C@H](O)C1)c1cccc(-c2noc(C(F)(F)F)n2)c1 [Example 179, N-((S)-2-((S)-3-hydroxypyrrolidin-1-yl)-1-(3-(5-(trifluoromethyl)-1,2,4-oxadiazol-3-yl)phenyl)ethyl)-N-methyl-2-(2-oxoindolin-6-yl)acetamide]	≤ 0.05
C#Cc1cccc([C@@H](CN2CC[C@H](O)C2)N(C)C(=O)Cc2ccc3c(c2)NC(=O)C3)c1 [Example 180, N-((S)-1-(3-ethynylphenyl)-2-((S)-3-hydroxypyrrolidin-1-yl)ethyl)-N-methyl-2-(2-oxoindolin-6-yl)acetamide]	≤ 0.05
Cc1nc(-c2cccc([C@@H](CN3CC[C@H](O)C3)N(C)C(=O)Cc3ccc4c(c3)NS(=O)(=O)C4)c2)no1 [Example 181, 2-(2,2-dioxido-1,3-dihydrobenzo[c]isothiazol-6-yl)-N-((S)-2-((S)-3-hydroxypyrrolidin-1-yl)-1-(3-(5-methyl-1,2,4-oxadiazol-3-yl)phenyl)ethyl)-N-methylacetamide]	≤ 0.05
C#Cc1cccc([C@@H](CN2CC[C@H](O)C2)N(C)C(=O)Cc2ccc3c(c2)NS(=O)(=O)C3)c1 [Example 182, 2-(2,2-dioxido-1,3-dihydrobenzo[c]isothiazol-6-yl)-N-((S)-1-(3-ethynylphenyl)-2-((S)-3-hydroxypyrrolidin-1-yl)ethyl)-N-methylacetamide]	≤ 0.05
Cc1nc(-c2cccc([C@@H](CN3CC[C@H](O)C3)N(C)C(=O)Cc3ccc4sc(=O)[nH]c4c3)c2)no1 [Example 183, N-((S)-2-((S)-3-hydroxypyrrolidin-1-yl)-1-(3-(5-methyl-1,2,4-oxadiazol-3-yl)phenyl)ethyl)-N-methyl-2-(2-oxo-2,3-dihydrobenzo[d]thiazol-5-yl)acetamide]	≤ 0.05
CN(C(=O)Cc1ccc2sc(=O)[nH]c2c1)[C@H](CN1CC[C@H](O)C1)c1cccc(-c2noc(C(F)(F)F)n2)c1 [Example 184, N-((S)-2-((S)-3-hydroxypyrrolidin-1-yl)-1-(3-(5-(trifluoromethyl)-1,2,4-oxadiazol-3-yl)phenyl)ethyl)-N-methyl-2-(2-oxo-2,3-dihydrobenzo[d]thiazol-5-yl)acetamide]	≤ 0.05
CN(C(=O)Cc1ccc2c(c1)NC(=O)C2)[C@H](CN1CC[C@H](O)C1)c1cccc(-c2ncon2)c1 [Example 185, N-((S)-1-(3-(1,2,4-oxadiazol-3-yl)phenyl)-2-((S)-3-hydroxypyrrolidin-1-yl)ethyl)-N-methyl-2-(2-oxoindolin-6-yl)acetamide 2,2,2-trifluoroacetate]	≤ 0.05
CN(C(=O)Cc1ccc2c(c1)NS(=O)(=O)C2)[C@H](CN1CC[C@H](O)C1)c1cccc(-c2ncon2)c1 [Example 186, N-((S)-1-(3-(1,2,4-oxadiazol-3-yl)phenyl)-2-((S)-3-hydroxypyrrolidin-1-yl)ethyl)-2-(2,2-dioxido-1,3-dihydrobenzo[c]isothiazol-6-yl)-N-methylacetamide]	≤ 0.05
CN(C(=O)Cc1ccc2c(c1)NS(=O)(=O)C2)[C@H](CN1CC[C@H](O)C1)c1cccc(-c2noc(C(F)(F)F)n2)c1 [Example 187, 2-(2,2-dioxido-1,3-dihydrobenzo [c]isothiazol-6-yl)-N-((S)-2-((S)-3-hydroxypyrrolidin-1-yl)-1-(3-(5-(trifluoromethyl)-1,2,4-oxadiazol-3-yl)phenyl)ethyl)-N-methylacetamide 2,2,2-trifluoroacetate]	≤ 0.05
CCN(CC)C(=O)c1cccc([C@@H](CN2CC[C@H](O)C2)N(C)C(=O)Cc2ccc3sc(=O)[nH]c3c2)c1 [Example 188, N,N-diethyl-3-((S)-2-((S)-3-hydroxypyrrolidin-1-yl)-1-(N-methyl-2-(2-oxo-2,3-dihydrobenzo[d]thiazol-5-yl)acetamido)ethyl)benzamide]	≤ 0.05
CN(C(=O)Cc1ccc2sc(=O)[nH]c2c1)[C@H](CN1CC[C@H](O)C1)c1cccc(-c2ncon2)c1 [Example 189, N-((S)-1-(3-(1,2,4-oxadiazol-3-yl)phenyl)-2-((S)-3-hydroxypyrrolidin-1-yl)ethyl)-N-methyl-2-(2-oxo-2,3-dihydrobenzo[d]thiazol-5-yl)acetamide 2,2,2-trifluoroacetate]	≤ 0.05
CN(C(=O)Cc1ccc2ncc(=O)[nH]c2c1)[C@H](CN1CC[C@H](O)C1)c1cccc(-c2ncon2)c1 [Example 190, N-((S)-1-(3-(1,2,4-oxadiazol-3-yl)phenyl)-2-((S)-3-hydroxypyrrolidin-1-yl)ethyl)-N-methyl-2-(3-oxo-3,4-dihydroquinoxalin-6-yl)acetamide 2,2,2-trifluoroacetate]	≤ 0.05
